Source: PMC8231556, “Inhibiting Endothelial Cell Function in Normal and Tumor Angiogenesis Using BMP Type I Receptor Macrocyclic Kinase Inhibitors” (Cancers, 2021)

Key:
[1] = system: Tg (fli:EGFP) zebrafish embryos; assay: Zebrafish DLAV and ISV formation; type: in vivo; conditions: 0.5 µM, 20 h
Procedure: The Tg (fli:EGFP) zebrafish embryos were collected, and embryos with the same development stage (around 2.5 hpf) were selected. The eggs were randomly separated into different groups, and each group contained at least 20 embryos. The embryos were exposed to egg water containing 0.5 µM compounds or vehicle control (equal amount of DMSO) for 20 h at 28 °C. Next, all the eggs were dechorionated under the microscope using tweezers. The zebrafish embryos were fixed in 4% paraformaldehyde (PFA) for 2 h at room temperature and stored at 4 °C in phosphate-buffered saline (PBS). The entire zebrafish embryo was imaged with an Andor Dragonfly 500 spinning disk confocal (Oxford Instruments, Abingdon, UK) using a 488 nm laser. Five embryos in each group were randomly selected and scanned. The zebrafish vasculature formation of DLAV and ISV after 20 h treatment with compounds was quantified using ImageJ as previously described. The experiments were repeated twice with similar results.

PLK4 = target: T1, PLK4 (Homo sapiens, UniProt O00444); assay: radiometric kinase profiling (33 PanQinase); type: biochemical; conditions: read-out: Inhibitory effect (%) PLK4
T1 construct: purchased ProQinase (33PanQinase Activity Assay)
T1 sequence (O00444 1-970): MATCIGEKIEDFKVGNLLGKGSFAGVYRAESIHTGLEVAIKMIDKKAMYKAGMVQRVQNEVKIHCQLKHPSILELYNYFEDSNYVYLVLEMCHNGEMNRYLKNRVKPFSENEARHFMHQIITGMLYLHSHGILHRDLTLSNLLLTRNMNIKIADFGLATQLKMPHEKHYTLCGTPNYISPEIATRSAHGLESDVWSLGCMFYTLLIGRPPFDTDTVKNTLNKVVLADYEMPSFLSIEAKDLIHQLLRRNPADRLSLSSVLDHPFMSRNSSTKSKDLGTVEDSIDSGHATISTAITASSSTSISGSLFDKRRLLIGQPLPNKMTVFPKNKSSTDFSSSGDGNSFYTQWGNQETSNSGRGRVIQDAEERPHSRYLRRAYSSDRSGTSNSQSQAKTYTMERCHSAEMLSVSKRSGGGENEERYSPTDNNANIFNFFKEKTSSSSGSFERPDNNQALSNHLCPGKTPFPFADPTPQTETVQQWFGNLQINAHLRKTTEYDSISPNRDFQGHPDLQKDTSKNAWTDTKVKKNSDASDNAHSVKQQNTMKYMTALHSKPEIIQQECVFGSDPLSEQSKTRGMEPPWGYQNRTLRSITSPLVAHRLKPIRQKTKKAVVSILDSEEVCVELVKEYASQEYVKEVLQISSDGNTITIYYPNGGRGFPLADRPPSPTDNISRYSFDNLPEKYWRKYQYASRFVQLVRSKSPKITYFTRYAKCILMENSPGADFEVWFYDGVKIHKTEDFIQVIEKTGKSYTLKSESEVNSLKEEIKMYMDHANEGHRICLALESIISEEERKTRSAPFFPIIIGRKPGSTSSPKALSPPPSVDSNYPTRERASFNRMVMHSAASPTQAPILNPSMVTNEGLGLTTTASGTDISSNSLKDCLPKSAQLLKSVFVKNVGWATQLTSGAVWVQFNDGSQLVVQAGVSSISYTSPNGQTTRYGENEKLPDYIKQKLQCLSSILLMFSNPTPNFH
Method in brief: (§1)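 Enzyme/substrate mixes were incubated with [γ-33P]-ATP and compound (added as a 0.1 μM solution in 10% DMSO) at 30 °C for 60 min, then stopped with H3PO4 and washed with NaCl. 33P incorporation was scintillation-counted, and residual activity (%) was normalized to untreated control and background.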

PHKG2 = target: T2, PHKG2 (Homo sapiens, UniProt P15735); assay: radiometric kinase profiling (33 PanQinase); type: biochemical; conditions: read-out: Inhibitory effect (%) PHKG2
T2 construct: purchased ProQinase (33PanQinase Activity Assay)
T2 sequence (P15735 1-406): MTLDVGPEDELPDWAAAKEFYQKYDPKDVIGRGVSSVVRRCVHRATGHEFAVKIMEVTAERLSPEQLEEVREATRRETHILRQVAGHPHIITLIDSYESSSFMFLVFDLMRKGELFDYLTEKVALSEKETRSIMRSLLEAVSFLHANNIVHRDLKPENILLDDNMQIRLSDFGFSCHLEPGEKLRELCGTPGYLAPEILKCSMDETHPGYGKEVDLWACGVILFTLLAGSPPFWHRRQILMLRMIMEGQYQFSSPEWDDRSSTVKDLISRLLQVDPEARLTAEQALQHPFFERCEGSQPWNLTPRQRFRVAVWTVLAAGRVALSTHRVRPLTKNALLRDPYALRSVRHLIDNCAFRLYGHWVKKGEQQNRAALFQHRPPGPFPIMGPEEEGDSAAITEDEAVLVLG
Method in brief: as §1

TGFBR2 = TGFBR2 (Homo sapiens, UniProt P37173); assay: radiometric protein kinase assay, affinity (Kd); type: binding
Sequence of TGFBR2 (P37173 23-567): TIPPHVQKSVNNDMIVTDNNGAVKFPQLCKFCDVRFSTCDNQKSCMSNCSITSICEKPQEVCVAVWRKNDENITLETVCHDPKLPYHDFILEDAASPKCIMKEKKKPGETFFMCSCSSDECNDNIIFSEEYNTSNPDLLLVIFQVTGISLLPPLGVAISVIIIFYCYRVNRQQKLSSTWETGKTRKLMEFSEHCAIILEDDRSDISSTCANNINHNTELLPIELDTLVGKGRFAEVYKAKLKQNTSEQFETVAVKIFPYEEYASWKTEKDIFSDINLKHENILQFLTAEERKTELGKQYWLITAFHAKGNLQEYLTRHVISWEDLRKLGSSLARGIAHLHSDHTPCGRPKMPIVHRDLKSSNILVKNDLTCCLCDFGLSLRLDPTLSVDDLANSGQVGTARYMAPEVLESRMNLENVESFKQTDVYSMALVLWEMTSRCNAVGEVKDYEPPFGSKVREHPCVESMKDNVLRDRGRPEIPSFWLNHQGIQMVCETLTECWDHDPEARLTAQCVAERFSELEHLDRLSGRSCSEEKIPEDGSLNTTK
Procedure: The binding interaction profile of the compounds for ALK1–6, ACVR2A, ACVR2B, and TGFβR2 was determined by using radiometric protein kinase assay. For each compound, ten different concentrations (from 3 × 10^−6 M to 9 × 10^−11 M) were used in the protein kinase reaction.

EA.hy926 cells = assay: Scratch wound migration assay; type: cell-based, human; conditions: 0.5 µM, 24 h; for effect on FBS-induced EC migration: 1% FBS; for effect on BMP9-induced EC migration: BMP9 1 ng/mL; for effect on VEGF-induced EC migration: VEGF 15 ng/mL
Procedure: Approximately 5 × 10^4 EA.hy926 cells/well were seeded in a 96-well microplate Essen ImageLock™ (4379, Essen Bioscience, Ann Arbor, MI, USA) and cultured overnight. Then homogeneous 700–800 micron-wide scratch wounds were made using a WoundMaker™ device (4563, Essen Bioscience, Ann Arbor, MI, USA) containing 96 pins. The compounds and/or ligands were added to each well in 100 µL of fresh serum-free medium. Each group contained 6 replicates. Real-time pictures were acquired every 4 h by the IncuCyte ZOOM (Essen Bioscience) to track the wound closure. The wound density was analyzed using the software package provided by the manufacturer and normalized to the wound width at the start of the experiment. All the experiments were repeated at least three times, and representative results are shown.

Structure (SMILES) | effect on DLAV and ISV formation (images) [1] | effect on total vessel length and number of junctions (DLAV and ISV, quantified) [1] | inhibition at 0.1 µM (PLK4) [%] | inhibition at 0.1 µM (PHKG2) [%] | Kd (TGFBR2) [nM] | effect on FBS-induced EC migration (EA.hy926 cells) | effect on BMP9-induced EC migration (EA.hy926 cells) | effect on VEGF-induced EC migration (EA.hy926 cells) | effect on DLAV formation [1] | effect on ISV development [1]
CNC(=O)c1ccccc1Sc1ccc2c(/C=C/c3ccccn3)n[nH]c2c1 [Axitinib, reference compound] | strong defects in both DLAV and ISV formation | strongly inhibited | – | – | – | – | – | – | – | –
c1ccc2c(-c3cnn4cc(-c5ccc(N6CCNCC6)cc5)cnc34)ccnc2c1 [LDN-193189, reference compound] | did not exhibit apparent defects | showed no effects | -34.4 | -23.6 | 16 | did not affect | significantly inhibited | no inhibitory effect | – | –
CN1CCc2cccc(c2)Nc2nccc(n2)N2CCCc3cc(ccc32)C1 [OD16] | – | significantly inhibited | 41.4 | 1.87 | 380 | did not affect | significantly inhibited | antagonized | strongly delayed | slightly inhibited
CN1CCC(=O)NCCNc2ccn3ncc(c3n2)-c2cccc(c2)C1 [OD29] | strong negative impact | significantly inhibited | 4.1 | -1.93 | 76 | effective in suppressing | significantly inhibited | antagonized | – | –
